The text below walks through data of publication PMC5458078, “Global mapping of CARM1 substrates defines enzyme specificity and substrate recognition” (Nature Communications, 2017).

The assay has as its system 6xHis-tagged CARM1 EVH1 domain (CARM1 28-140). In words: FP assay with fluorescein-labelled BAF155 peptide and 6xHis-CARM1 28-140. It counts as binding. The conditions noted are these: fluorescein-labelled BAF155 peptide 5 nM; protein titrated; 50 mM HEPES pH 7.5, 150 mM NaCl, 0.005% NP-40, 0.5 mM EDTA; 2 h, room temperature; triplicates; ex 485/20 nm, em 528/20 nm. As to the method: The DNA fragment encoding CARM1 residues 28–140 was cloned into pET21a expression vector (Novagen, Madison, WI). DNA construct was transformed into BL21(DE3)pLysS E. coli expression strain. Luria–Bertani media (1–2L) was seeded with 10 ml of overnight starter culture and grown at 37 °C until OD600 nm reached 0.6. Protein expression was then induced with the addition of 0.2 mM isopropyl β-D-1-thiogalactopranoside for 4 h at ambient temperature. Bacterial pellets were then lysed by sonication on ice in lysis buffer (50 mM Tris, pH 7.5, 150 mM NaCl, 0.05% NP-40, supplemented with 1 × protease inhibitor cocktail before use) with 70% amplitude, 30 s on, 30 s off, 10 cycles. […] Protein concentration was then determined using Bradford assay and protein purity was assessed by SDS–PAGE and Coomassie Blue staining.
Fluorescein-labelled BAF155 peptide (constant final concentration at 5 nM) was mixed with titrations of purified recombinant proteins or BSA control in binding buffer (50 mM HEPES, pH 7.5, 150 mM NaCl, 0.005% NP-40, 0.5 mM EDTA) and incubated in dark at room temperature for 2 h. […] Polarization measurements were then corrected for background contributions to the measured intensity by subtracting the parallel and perpendicular intensity readings, from the blank buffer-only wells, from the intensity readings for each data point. […]

In the case of “bovine serum albumin (BSA): bovine serum albumin control”, the Fluorescence polarization change result is “no change in signal”.
